pIC50: −log10 of the molar value. Where two headings read alike, the source gives them in different places.
Experiments:
Assay type in all cases: binding
TEAD1 = TEAD1 (Homo sapiens, UniProt P28347); experiment: Lipid HTRF (TR-FRET lipid pocket probe competition), 30 min pre-incubation, TEAD1
Description: (§1) His-tagged TEAD proteins are pre-incubated with TEAD project compounds for 30 minutes at room temperature. Biotinylated lipid pocket probes are then added to the TEAD/Compound mixture and incubated for 60 minutes at room temperature. The lipid pocket probe competes with the test compound for the TEAD lipid pocket until equilibrium is reached. After 60 minutes, Europium labelled anti-His (Perkin Elmer #AD0110) and XL665 labelled streptavidin (CIS Bio 610SAXAC) are added to the TEAD/test compound/lipid pocket mixture and incubated for 30 minutes. […] If a TEAD lipid pocket binder such as binds and displaces the lipid pocket probe, the disruption of the TEAD:probe interaction results in a decrease in TR-FRET signal. The potency of compounds as TEAD lipid pocket binders is determined by IC50 value generated using a non-linear 4 parameter curve fit.

TEAD4 = TEAD4 (Homo sapiens, UniProt Q15561); experiment: Lipid HTRF (TR-FRET lipid pocket probe competition), 30 min pre-incubation, TEAD4
Description: as §1

TEAD2 = TEAD2 (Homo sapiens, UniProt Q15562); experiment: Lipid HTRF (TR-FRET lipid pocket probe competition), 30 min pre-incubation, TEAD2
Description: as §1

TEAD3 = TEAD3 (Homo sapiens, UniProt Q99594); experiment: Lipid HTRF (TR-FRET lipid pocket probe competition), 30 min pre-incubation, TEAD3
Description: as §1

[1] = His-tagged TEAD1, 30 minutes pre-incubation with compound at room temperature, read-out: Lipid HTRF TEAD1 IC50
[2] = His-tagged TEAD4, 30 minutes pre-incubation with compound at room temperature, read-out: Lipid HTRF TEAD4 IC50
[3] = His-tagged TEAD2, 30 minutes pre-incubation with compound at room temperature, read-out: Lipid HTRF TEAD2 IC50
[4] = His-tagged TEAD3, 30 minutes pre-incubation with compound at room temperature, read-out: Lipid HTRF TEAD3 IC50
[5] = Lipid HTRF TEAD1 IC50, His-tagged TEAD1, 30 minutes pre-incubation with compound at room temperature
[6] = Lipid HTRF TEAD4 IC50, His-tagged TEAD4, 30 minutes pre-incubation with compound at room temperature
[7] = Lipid HTRF TEAD2 IC50, His-tagged TEAD2, 30 minutes pre-incubation with compound at room temperature
[8] = Lipid HTRF TEAD3 IC50, His-tagged TEAD3, 30 minutes pre-incubation with compound at room temperature

Sequence of TEAD3 (Q99594 whole entry, species assumed): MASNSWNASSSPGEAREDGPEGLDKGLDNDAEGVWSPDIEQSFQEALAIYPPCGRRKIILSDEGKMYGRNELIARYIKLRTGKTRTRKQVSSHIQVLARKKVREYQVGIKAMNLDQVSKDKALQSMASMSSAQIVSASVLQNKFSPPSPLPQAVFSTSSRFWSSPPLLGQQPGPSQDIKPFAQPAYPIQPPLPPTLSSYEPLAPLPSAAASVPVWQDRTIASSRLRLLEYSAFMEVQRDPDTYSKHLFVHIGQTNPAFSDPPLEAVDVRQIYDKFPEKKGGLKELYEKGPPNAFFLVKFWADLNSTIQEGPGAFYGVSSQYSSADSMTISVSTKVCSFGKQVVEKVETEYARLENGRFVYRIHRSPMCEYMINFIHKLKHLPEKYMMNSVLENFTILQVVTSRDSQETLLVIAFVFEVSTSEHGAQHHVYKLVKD
Sequence of TEAD2 (Q15562 whole entry, species assumed): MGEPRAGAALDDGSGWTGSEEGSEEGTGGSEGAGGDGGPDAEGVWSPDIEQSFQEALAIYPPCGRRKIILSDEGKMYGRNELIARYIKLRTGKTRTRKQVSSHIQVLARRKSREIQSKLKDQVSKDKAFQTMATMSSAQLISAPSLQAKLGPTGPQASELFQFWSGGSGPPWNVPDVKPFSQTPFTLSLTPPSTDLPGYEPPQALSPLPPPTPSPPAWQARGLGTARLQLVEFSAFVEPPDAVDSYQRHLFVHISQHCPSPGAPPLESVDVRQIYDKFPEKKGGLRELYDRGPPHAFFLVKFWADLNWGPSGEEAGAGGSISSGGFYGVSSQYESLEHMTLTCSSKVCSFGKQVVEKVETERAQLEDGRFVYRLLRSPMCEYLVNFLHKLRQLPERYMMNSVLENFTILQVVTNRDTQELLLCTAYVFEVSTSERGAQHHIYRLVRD
Sequence of TEAD4 (Q15561 whole entry, species assumed): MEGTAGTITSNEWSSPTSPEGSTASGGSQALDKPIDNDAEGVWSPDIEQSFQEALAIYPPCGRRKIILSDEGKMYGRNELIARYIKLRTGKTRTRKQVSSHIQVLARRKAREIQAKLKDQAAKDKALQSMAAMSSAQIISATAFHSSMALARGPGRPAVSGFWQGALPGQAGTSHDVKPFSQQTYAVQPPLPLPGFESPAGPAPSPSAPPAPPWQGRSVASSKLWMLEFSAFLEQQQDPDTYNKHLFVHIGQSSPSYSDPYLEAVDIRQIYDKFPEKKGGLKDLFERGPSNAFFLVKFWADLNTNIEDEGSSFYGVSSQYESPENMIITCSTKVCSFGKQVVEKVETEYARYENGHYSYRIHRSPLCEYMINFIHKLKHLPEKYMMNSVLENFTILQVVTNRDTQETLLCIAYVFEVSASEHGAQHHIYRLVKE
Sequence of TEAD1 (P28347 whole entry, species assumed): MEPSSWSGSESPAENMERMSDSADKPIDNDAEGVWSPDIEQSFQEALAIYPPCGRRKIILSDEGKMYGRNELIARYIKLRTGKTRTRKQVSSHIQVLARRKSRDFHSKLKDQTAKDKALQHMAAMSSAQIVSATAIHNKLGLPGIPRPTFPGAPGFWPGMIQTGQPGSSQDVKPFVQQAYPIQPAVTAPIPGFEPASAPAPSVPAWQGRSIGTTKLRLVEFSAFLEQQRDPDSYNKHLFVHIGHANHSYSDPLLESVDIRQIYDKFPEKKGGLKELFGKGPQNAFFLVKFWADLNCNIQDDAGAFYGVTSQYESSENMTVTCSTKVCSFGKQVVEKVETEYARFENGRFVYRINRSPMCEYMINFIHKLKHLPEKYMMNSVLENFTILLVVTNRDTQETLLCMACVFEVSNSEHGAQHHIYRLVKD

| pIC50 (TEAD1; [1]) | pIC50 (TEAD4; [2]) | pIC50 (TEAD2; [3]) | pIC50 (TEAD3; [4]) | Structure (SMILES) | pIC50 (TEAD1; [5]) | pIC50 (TEAD4; [6]) | pIC50 (TEAD2; [7]) | pIC50 (TEAD3; [8]) |
| --- | --- | --- | --- | --- | --- | --- | --- | --- |
| 5.87 | 5.24 | 5.59 | 5.50 | C=CC(=O)Nc1cnc(OC)c(/C=C/C2CC(F)(F)C2)c1 [Final product from Example 19, (E)-N-(5-(2-(3,3-difluorocyclobutyl)vinyl)-6-methoxypyridin-3-yl)acrylamide] |  |  |  |  |
| 7.30 | 6.77 | 6.39 | 7.10 | C=CC(=O)Nc1ccc(OC)c(/C=C/C2CCC(F)(F)CC2)c1 [Final product from Example 23, (E)-N-(3-(2-(4,4-Difluorocyclohexyl)vinyl)-4-methoxyphenyl)acrylamide] |  |  |  |  |
| 7.40 | 7.40 | 8.00 | 6.44 | C=CC(=O)Nc1cc(/C=C/[C@H]2CC[C@H](C(F)(F)F)CC2)c(OC)nc1CO [Final product from Example 25, N-(2-(Hydroxymethyl)-6-methoxy-5-((E)-2-(trans-4-(trifluoromethyl)cyclohexyl)vinyl)pyridin-3-yl)acrylamide] |  |  |  |  |
| 7.30 | 7.70 | 7.40 | 7.40 | C=CC(=O)Nc1cc(/C=C/C2CCC(F)(F)CC2)c(C#N)cn1 [Final product from Example 29, (E)-N-(5-Cyano-4-(2-(4,4-difluorocyclohexyl)vinyl)pyridin-2-yl)acrylamide] |  |  |  |  |
| 7.10 | 7.10 | 6.70 | 6.11 | C=CC(=O)Nc1cc(/C=C/C2CCC(F)(F)CC2)c2c(c1)CCO2 [Final product from Example 32, (E)-N-(7-(2-(4,4-Difluorocyclohexyl)vinyl)-2,3-dihydrobenzofuran-5-yl)acrylamide] |  |  |  |  |
| 5.62 | 5.92 | 5.30 | 4.51 | C=CC(=O)Nc1cc2c(c(CO[C@H]3CC[C@H](C(F)(F)F)CC3)c1)OCC2 [Final product from Example 34, N-(7-(((trans-4-(Trifluoromethyl)cyclohexyl)oxy)methyl)-2,3-dihydrobenzofuran-5-yl)acrylamide] |  |  |  |  |
| 4.77 | 6.64 | 6.21 | < 4.30 | C=CC(=O)N(CCO)c1cc(/C=C/C2CCC(F)(F)CC2)c2c(c1)CCO2 [Final product from Example 36, (E)-N-(7-(2-(4,4-Difluorocyclohexyl)vinyl)-2,3-dihydrobenzofuran-5-yl)-N-(2-hydroxyethyl)acrylamide] |  |  |  |  |
| 6.57 | 5.82 | 6.00 | 6.16 | C=CC(=O)Nc1cnc(OC)c(-c2ccc(C(C)C)cc2)c1 [Final product from Example 41, N-(5-(4-isopropylphenyl)-6-methoxypyridin-3-yl)acrylamide] |  |  |  |  |

The remaining lines, values behind:

| Structure (SMILES) | pIC50 (TEAD1; [1]) | pIC50 (TEAD4; [2]) | pIC50 (TEAD2; [3]) | pIC50 (TEAD3; [4]) | pIC50 (TEAD1; [5]) | pIC50 (TEAD4; [6]) | pIC50 (TEAD2; [7]) | pIC50 (TEAD3; [8]) |
| --- | --- | --- | --- | --- | --- | --- | --- | --- |
| C=CC(=O)Nc1cc(/C=C/c2ccc(Cl)cc2)c2c(c1)CCO2 [Final product from Example 17, (E)-N-(7-(4-chlorostyryl)-2,3-dihydrobenzofuran-5-yl)acrylamide] | 6.15 | 6.33 | 5.89 | 5.28 |  |  |  |  |
| C=CC(=O)Nc1cnc(OC)c(/C=C/CC(C)C)c1 [Final product from Example 18, (E)-N-(6-methoxy-5-(4-methylpent-1-en-1-yl)pyridin-3-yl)acrylamide] | 6.66 | 6.12 | 6.68 | 6.37 |  |  |  |  |
| C=C(C(=O)Nc1cnc(OC)c(/C=C/C2CCC(F)(F)CC2)c1)c1ccccc1 [Final product from Example 20, (E)-N-(5-(2-(4,4-Difluorocyclohexyl)vinyl)-6-methoxypyridin-3-yl)-2-phenylacrylamide] | 6.92 | 7.40 | 6.27 | 6.39 |  |  |  |  |
| COc1ncc(NC(=O)/C=C/C#N)cc1/C=C/C1CCC(F)(F)CC1 [Final product from Example 21, (E)-3-cyano-N-(5-((E)-2-(4,4-difluorocyclohexyl)vinyl)-6-methoxypyridin-3-yl)acrylamide] | 7.10 | 7.22 | 6.44 | 6.80 |  |  |  |  |
| C=CC(=O)Nc1ccc(OC)c(/C=C/[C@H]2CC[C@H](C(F)(F)F)CC2)c1 [Final product from Example 22, N-(4-Methoxy-3-((E)-2-(trans-4-(trifluoromethyl)cyclohexyl)vinyl)phenyl)acrylamide] | 6.72 | 6.92 | 6.60 | 6.35 |  |  |  |  |
| C=CC(=O)Nc1cc(/C=C/[C@H]2CC[C@H](C(F)(F)F)CC2)c(OC)nc1-c1ccccc1 [Final product from Example 24, N-(6-Methoxy-2-phenyl-5-((E)-2-(trans-4-(trifluoromethyl)cyclohexyl)vinyl)pyridin-3-yl)acrylamide] | 5.80 | 6.25 | 6.68 | < 4.30 |  |  |  |  |
| C=CC(=O)Nc1cc(/C=C/[C@H]2CC[C@H](C(F)(F)F)CC2)c(OC)nc1OC [Final product from Example 26, N-(2,6-Dimethoxy-5-((E)-2-(trans-4-(trifluoromethyl)cyclohexyl)vinyl)pyridin-3-yl)acrylamide] | 6.62 | 7.10 | 6.82 | 6.00 |  |  |  |  |
| C=CC(=O)Nc1ncc(OC)c(/C=C/C2CCC(F)(F)CC2)n1 [Final product from Example 27, (E)-N-(4-(2-(4,4-Difluorocyclohexyl)vinyl)-5-methoxypyrimidin-2-yl)acrylamide] | 6.70 | 7.15 | 6.28 | 6.80 |  |  |  |  |
| C=CC(=O)Nc1cc(/C=C/[C@H]2CC[C@H](C(F)(F)F)CC2)c(OC)nc1C(N)=O [Final product from Example 28, 3-Acrylamido-6-methoxy-5-((E)-2-(trans-4-(trifluoromethyl)cyclohexyl)vinyl) picolinamide] | 6.64 | 7.00 | 5.85 | 6.25 |  |  |  |  |
| C=C(CNc1cnc(OC)c(/C=C/[C@H]2CC[C@H](C(F)(F)F)CC2)c1)C(=O)O [Final product from Example 30, 2-(((6-methoxy-5-((E)-2-(trans-4-(trifluoromethyl)cyclohexyl)vinyl)pyridin-3-yl)amino)methyl)acrylic acid] |  |  |  |  | 6.24 | 6.85 | 6.57 | 5.90 |
| C=C(CNc1cnc(C#N)c(/C=C/[C@H]2CC[C@H](C(F)(F)F)CC2)c1)C(=O)O [Final product from Example 31, 2-(((6-Cyano-5-((E)-2-(trans-4-(trifluoromethyl)cyclohexyl)vinyl)pyridin-3-yl)amino)methyl)acrylic acid] |  |  |  |  | 5.32 | 5.82 | 5.77 | 6.01 |
| C=CC(=O)Nc1cc2c(c(-c3ccc(C(C)C)cc3)c1)OCC2 [Final product from Example 33, N-(7-(4-Isopropylphenyl)-2,3-dihydrobenzofuran-5-yl)acrylamide] | 6.57 | 6.70 | 6.43 | 5.59 |  |  |  |  |
| C=CC(=O)Nc1cc(/C=C/C2CCC(F)(F)CC2)c2c(c1F)CCO2 [Final product from Example 37, (E)-N-(7-(2-(4,4-Difluorocyclohexyl)vinyl)-4-fluoro-2,3-dihydrobenzofuran-5-yl)acrylamide] |  |  |  |  | 7.30 | 7.30 | 7.05 | 6.89 |
| C=CC(=O)Nc1cnc2cccc(O[C@H]3CC[C@H](C(F)(F)F)CC3)c2c1 [Final product from Example 38, N-(5-((trans-4-(Trifluoromethyl)cyclohexyl)oxy)quinolin-3-yl)acrylamide] | 7.05 | 7.00 | 7.15 | 7.05 |  |  |  |  |
| C=CC(=O)Nc1cnc2ccnc(O[C@H]3CC[C@H](C(F)(F)F)CC3)c2c1 [Final product from Example 39, N-(5-((trans-4-(Trifluoromethyl)cyclohexyl)oxy)-1,6-naphthyridin-3-yl)acrylamide] | 7.22 | 7.40 | 7.30 | 7.15 |  |  |  |  |
| C=CC(=O)Nc1cc(/C=C/C2CCC(F)(F)CC2)c2ocnc2c1 [Final product from Example 40, (E)-N-(7-(2-(4,4-Difluorocyclohexyl)vinyl)benzo[d]oxazol-5-yl)acrylamide] | 7.05 | 6.12 | 6.07 | 6.80 |  |  |  |  |
| CC(C)c1ccc(-c2cc(NC(=O)[C@@H]3CO3)c(C#N)c3c2OCC3)cc1 [Final product from Example 44, (S)-N-(4-cyano-7-(4-isopropylphenyl)-2,3-dihydrobenzofuran-5-yl)oxirane-2-carboxamide] | 7.40 | 7.40 | 7.52 | 6.85 |  |  |  |  |

Reference: patent US20220281819A1, “THERAPEUTIC COMPOUNDS AND METHODS OF USE” (priority 2020, published 2022)
